{"source": "paper PMC12498190", "about": "“A Photocaged N‐Phosphonopiperidinone as a Selective Photo‐Cleavable DPP8/9 Inhibitor” (Chembiochem, 2025)", "key": {"DPP9": {"target": "DPP9 (Homo sapiens, UniProt Q86TI2)", "sequence (Q86TI2 whole entry)": "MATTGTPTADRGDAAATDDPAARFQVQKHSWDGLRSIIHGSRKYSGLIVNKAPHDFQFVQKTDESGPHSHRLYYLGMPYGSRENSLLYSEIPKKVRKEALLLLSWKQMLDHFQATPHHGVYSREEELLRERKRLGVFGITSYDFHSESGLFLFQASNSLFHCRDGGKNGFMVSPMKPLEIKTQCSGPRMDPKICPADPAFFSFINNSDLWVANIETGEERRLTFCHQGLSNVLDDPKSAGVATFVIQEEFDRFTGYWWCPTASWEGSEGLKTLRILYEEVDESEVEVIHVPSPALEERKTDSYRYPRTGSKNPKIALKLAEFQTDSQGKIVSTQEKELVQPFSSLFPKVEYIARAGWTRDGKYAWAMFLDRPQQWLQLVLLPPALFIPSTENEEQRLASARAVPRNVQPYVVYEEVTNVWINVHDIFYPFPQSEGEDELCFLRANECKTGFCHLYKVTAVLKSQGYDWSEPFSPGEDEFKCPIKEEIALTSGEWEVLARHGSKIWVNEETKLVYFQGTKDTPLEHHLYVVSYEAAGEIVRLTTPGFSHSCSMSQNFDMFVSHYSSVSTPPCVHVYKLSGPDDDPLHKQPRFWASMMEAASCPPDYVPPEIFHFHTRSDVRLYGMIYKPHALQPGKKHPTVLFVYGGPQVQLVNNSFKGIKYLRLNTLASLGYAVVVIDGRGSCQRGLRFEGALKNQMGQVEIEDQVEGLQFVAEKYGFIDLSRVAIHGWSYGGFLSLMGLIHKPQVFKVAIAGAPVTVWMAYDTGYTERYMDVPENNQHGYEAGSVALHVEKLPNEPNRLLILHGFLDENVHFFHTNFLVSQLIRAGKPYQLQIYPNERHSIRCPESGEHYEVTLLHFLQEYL", "assay": "Progress-curve kinetics of covalent DPP9 inhibition (kinact, KI)", "type": "biochemical", "parameters": "purchased Proteros Biostructures GmbH, Germany", "conditions": "dark", "excerpt": "As previously shown by us, 1 inhibits DPP8 and DPP9 via a covalent modification of the active site serine.^[ [31] ^] Therefore, we also measured the time dependence of this covalent modification of the target enzyme by recording progress curves for the inhibition of DPP8 and 9 and using them to calculate the corresponding binding affinity (KI), maximum enzyme inhibition rate (kinact) as well as the efficiency of covalent bond formation (kinact/KI) values for 5 after and without green light irradiation ( Figure S1 and Table S1, Supporting Information).\nTo calculate the reaction rate of covalent bond formation between DPP proteins and the inhibitor, kinact, KI, and kinact/KI were determined as previously described.^[ [49] ^, [50] ^] To this end, a dilution series of 5 was irradiated using a green LED lamp (λ = 520−530 nm; Eurolite, Germany) for 5 min and subsequently mixed with 250 µM GP‐AMC. The mixture was then added to 10 nM enzyme, and the resulting activity was measured for a maximum of 60 min at 30 °C. Fluorescence intensities were plotted against time and data were fitted to the following equation: [drawing 1] using Graph‐Pad Prism v10.4.1. The obtained pseudo first‐order rate constant was used to determine kinact and KI by fitting the plot of kobs against inhibitor concentration to the following equation: [drawing 2] . The efficiency of covalent bond formation (kinact/KI) was calculated by the ratio of kinact/KI. All measurements were performed in triplicate, and error bars represent standard errors of the fit.\nSupplementary Figure 1. Kinetic analysis of DPP8 and DPP9 inhibition by compound 5. The pseudo-first order rate constant (kobs) was calculated from an exponential regression of progress curves and plotted against the concentration of compound 5. All measurement were performed in triplicate (n = 3 technical replicates), mean values are shown and error bars indicate the standard error of the mean (SEM). Inhibition assay was performed with DPP8 (A, B) and DPP9 (C, D) under ‘dark’ (A, C) and ‘light’ (B, D) conditions. […]"}, "human DPP4": {"target": "T1, human DPP4 (Homo sapiens, UniProt P27487)", "T1 construct": "purchased Proteros Biostructures GmbH, Germany", "T1 sequence (P27487 whole entry)": "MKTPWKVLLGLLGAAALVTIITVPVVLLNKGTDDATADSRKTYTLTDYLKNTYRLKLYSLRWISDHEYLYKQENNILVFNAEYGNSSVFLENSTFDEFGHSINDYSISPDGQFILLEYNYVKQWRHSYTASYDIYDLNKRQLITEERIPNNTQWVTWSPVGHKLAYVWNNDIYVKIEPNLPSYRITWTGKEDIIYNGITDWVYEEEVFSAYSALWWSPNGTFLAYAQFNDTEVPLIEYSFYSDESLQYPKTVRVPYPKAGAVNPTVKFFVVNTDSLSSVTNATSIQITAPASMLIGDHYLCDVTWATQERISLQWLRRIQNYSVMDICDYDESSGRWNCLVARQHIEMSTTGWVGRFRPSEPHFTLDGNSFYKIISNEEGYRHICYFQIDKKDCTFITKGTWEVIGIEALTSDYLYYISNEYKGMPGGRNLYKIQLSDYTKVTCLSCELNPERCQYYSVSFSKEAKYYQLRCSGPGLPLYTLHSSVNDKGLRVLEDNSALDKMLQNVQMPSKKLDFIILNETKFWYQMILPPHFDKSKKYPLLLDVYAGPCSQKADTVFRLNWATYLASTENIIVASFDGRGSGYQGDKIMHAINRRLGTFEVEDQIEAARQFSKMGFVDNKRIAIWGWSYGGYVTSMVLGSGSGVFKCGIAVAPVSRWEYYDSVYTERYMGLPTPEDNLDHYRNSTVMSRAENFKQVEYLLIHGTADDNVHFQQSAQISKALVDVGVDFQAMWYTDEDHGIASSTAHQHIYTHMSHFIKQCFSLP", "assay": "DPP4 enzyme inhibition assay, AMC release from GP-AMC", "type": "biochemical", "excerpt": "We then continued to investigate the biochemical properties of the photocaged compound 5 versus the photoreleased product resembling inhibitor 1. To this end, we performed biochemical enzyme inhibition assays with DPP8 and DPP9 before and after irradiation of 5. Resulting DPP8/9 inhibition was quantified by following the DPP8‐ or DPP9‐mediated proteolysis of the fluorophore 7‐amino‐4‐methylcoumarin (AMC) from the model substrate Gly‐Pro‐AMC (Figure 1C,D and Table 1 ). To induce photocleavage of 5, reaction mixtures were irradiated for 5 min with the same green LED lamp as before, followed by a pre‐incubation of 45 min with the photoreleased inhibitor prior to substrate addition.\nEnzyme activity of human DPP4, DPP8, and DPP9 (Proteros Biostructures GmbH, Germany) was determined by measuring the initial velocity of AMC release from the fluorogenic substrate GP‐AMC (Sigma Aldrich, USA) using a Tecan Spark 10 M multimode microplate reader (Tecan Group Ltd., Switzerland) in activity buffer (20 mM HEPES/KOH pH 7.3, 110 mM potassium acetate, 2 mM magnesium acetate, 0.5 mM EGTA, 0.02% Tween 20, supplemented with 1 mM DTT) and a final volume of 20 μL for maximal 30 min at 30 °C. Prior to the activity measurement, 10 nM of the corresponding enzyme was incubated for 45 min at 30 °C and gentle shaking with the indicated compounds at concentrations ranging from 0 to 100 μM, followed by irradiation with a green LED lamp (λ = 520−530 nm; Eurolite, Germany) for 5 min. The corresponding compounds were dissolved in DMSO and diluted in activity buffer (final DMSO concentration: 1%). To the inhibitor–enzyme mixture, GP‐AMC was then added to a final concentration of 250 μM, and the activity measurement was started. The resulting enzyme activity was calculated from the slope (fluorescence release over time) and plotted against the concentrations of the inhibitor. Apparent IC50 values were calculated using Graph‐Pad Prism v10.4.1 using the equation: [Inhibitor] versus response‐Variable slope (four parameters). […]"}}, "data": [{"smiles": "CCCCCc1ccc(SCCP(=O)(OCC)N2CCC[C@H](NC(=O)OCC3=C4C(C)=CC(C)=[N+]4[B-](C)(C)n4c(C)cc(C)c43)C2=O)cc1", "note": "(stereo partly drawn) [Compound 5]", "values": [{"measurement": "KI (inactivation)", "setting": "DPP9", "result": 32.2, "unit": "µM"}, {"measurement": "kinact", "setting": "DPP9", "result": 0.000464, "unit": "s⁻¹"}, {"measurement": "kinact/KI", "setting": "DPP9", "result": 14, "unit": "M⁻¹ s⁻¹"}, {"measurement": "IC50", "setting": "human DPP4; DPP4, dark (without green light irradiation), 45 min pre-incubation, read-out: Apparent IC50", "result": "> 100", "unit": "µM"}, {"measurement": "DPP4 inhibition (in words)", "setting": "human DPP4; irradiated", "result": "not inhibited"}, {"measurement": "DPP4 inhibition (in words)", "setting": "human DPP4; non-irradiated", "result": "not inhibited"}]}]}
